In paper PMC2582943 (Antiviral Research, 2008):
Several values for one entry are separate records, joined by “and”; a condition that tells them apart may be missing. Equal values may be shown once. Where a name gives a salt, the structure may show the parent alone. Read-outs that look alike come from different tables or passages of the source. Peptide text beside a SMILES is read from it.

How the values were obtained:
[1] = system: Vero 76 cells; assay: cells; assay type: cell-based, African green monkey
[2] = system: SARS-CoV (strain Urbani); assay: microbe, parasite or virus in culture; assay type: cell-based
[3] = system: SARS-CoV (strain Urbani); assay: microbe, parasite or virus in culture; assay type: cell-based; remark: listed apart in the source
[4] = system: SARS-CoV Toronto-2 strain; assay: microbe, parasite or virus in culture; assay type: cell-based
[5] = system: SARS-CoV Toronto-2 strain; assay: microbe, parasite or virus in culture; assay type: cell-based; remark: listed apart in the source
[6] = system: SARS-CoV CHUK-W1 strain; assay: microbe, parasite or virus in culture; assay type: cell-based
[7] = system: SARS-CoV Frankfurt-1 strain; assay: microbe, parasite or virus in culture; assay type: cell-based
[8] = system: SARS-CoV CHUK-W1 strain; assay: microbe, parasite or virus in culture; assay type: cell-based; remark: listed apart in the source
[9] = system: SARS-CoV Frankfurt-1 strain; assay: microbe, parasite or virus in culture; assay type: cell-based; remark: listed apart in the source
[10] = read-out: Neutral red uptake assay IC50
[11] = read-out: Virus yield reduction assay IC50
[12] = read-out: Neutral red uptake assay EC50
[13] = read-out: Virus yield reduction assay EC90
[14] = read-out: Neutral red uptake assay EC50 ± S.D.
[15] = read-out: VYR assay EC90 ± S.D.
[16] = read-out: Neutral red uptake assay IC50 ± S.D.
[17] = Severe acute respiratory syndrome coronavirus, Vero 76, read-out: Neutral red uptake assay EC50 ± S.D.
[18] = Severe acute respiratory syndrome coronavirus, Vero 76, read-out: VYR assay EC90 ± S.D.
[19] = Chlorocebus sabaeus, Vero 76, read-out: Neutral red uptake assay IC50 ± S.D.
[20] = Chlorocebus sabaeus, Vero 76, read-out: Virus yield reduction assay IC50
[21] = Severe acute respiratory syndrome coronavirus, Vero 76, read-out: Neutral red uptake assay EC50
[22] = Severe acute respiratory syndrome coronavirus, Vero 76, read-out: Virus yield reduction assay EC90
[23] = Chlorocebus sabaeus, Vero 76, read-out: Neutral red uptake assay IC50

SMILES | IC50 [1, 10] | IC50 [1, 11] | Neutral red uptake assay SI [2] | EC50 [2, 12] | Virus yield reduction assay SI [3] | EC90 [3, 13] | IC50 [1, 16] | IC50 [1, 20] | EC50 [2, 21] | EC90 [3, 22] | other results
OCCCN1c2ccccc2Sc2ccc(Cl)cc21 [2-Chloro-10-(3-chloropropanol)-10H-phenothiazine] | 20.8 ± 8.1 µM | 20.8 ± 8.1 µM | <1 | 23 ± 11 µM | <1 | 27 ± 16.8 µM | – | – | – | – | Inhibition of virus replication in vitro (in words) [2]: essentially inactive
CN1CCCC1CN1c2ccccc2Sc2ccccc21.Cl (stereo not shown) [10-(1-Methyl-2-pyrrolidinymethyl)-phenothiazine·HCl] | 39.9 ± 0.2 µM | 39.9 ± 0.2 µM | – | – | – | 16.9 ± 9.7 µM | 39.7 µM and 32.3 µM and 48 µM and 42.3 µM | – | – | – | EC50 [4, 14]: 28.5 ± 8.1 µM; EC90 [5, 15]: 41.7 ± 4 µM; EC90 [6, 15]: 31.3 ± 14.2 µM; EC50 [7, 14]: 24.3 ± 7.4 µM; EC50 [8, 14]: 19 ± 2.6 µM; EC90 [9, 15]: 23.7 ± 6 µM; EC90 [3, 15]: 28.3 ± 12.9 µM
CC(=O)c1ccc2c(c1)N(CCCN1CCN(CCO)CC1)c1ccccc1S2 [Acetophenazine maleate] | – | – | – | – | – | – | 18 µM and 15.5 µM and 13.7 µM | 13.2 ± 1.6 µM | 6.6 ± 3.3 µM | 10 ± 5 µM | EC50 [4, 17]: 11.5 ± 3.7 µM; EC90 [5, 18]: 13 µM; EC90 [6, 18]: 11.2 ± 3.2 µM; EC50 [8, 17]: 9.6 ± 7.6 µM; IC50 [1, 19]: 14.3 ± 6.4 µM; EC50 [2, 17]: 8.1 ± 1.4 µM; EC90 [9, 18]: 10 ± 5.2 µM; EC90 [3, 18]: 12.3 ± 2.1 µM
CC(C)C[C@H](NC(=O)OCc1ccccc1)C(=O)N[C@@H](CC(C)C)C(=O)N[C@@H](Cc1ccc(O)cc1)C(=O)CF [Calpain Inhibitor IV] (HELM PEPTIDE1{[O=C(OCc1ccccc1)[*:2]].L.L.Y.[FC[*:1]]}$$$$V2.0) | 24.7 ± 7 µM | 33 ± 4.1 µM | 9.4 | 2.6 µM | 3.3 | 7.2 µM | 24.7 µM and 44 µM and 30 µM and 45 µM | – | – | – | Neutral red uptake assay SI [4]: 8.3; EC50 [4, 14]: 5.4 ± 1.4 µM; EC90 [5, 15]: 9.6 ± 3.1 µM; EC90 [6, 15]: 6.5 ± 3.6 µM; Neutral red uptake assay SI [7]: 9.5; EC50 [7, 14]: 4.6 ± 2.1 µM; EC50 [8, 14]: 2.6 ± 1.4 µM; Inhibition of virus replication in vitro (in words) [2]: inhibited virus replication as expected; EC50 [2, 14]: 2.6 ± 0.5 µM; EC90 [9, 15]: 6.5 ± 3.6 µM; EC90 [3, 15]: 7.2 ± 0.9 µM
CN(C)CC/C=C1/c2ccccc2Sc2ccc(Cl)cc21 [Chlorprothixene] | – | – | 1.9 and 1.4 | – | 1.8 | – | 18.5 µM and 15.8 µM and 16.7 µM | 18.3 ± 3.4 µM | 9.5 ± 5.7 µM | 10.4 ± 4.2 µM | Neutral red uptake assay SI [4]: 1.2; EC50 [4, 17]: 12.9 ± 3.6 µM; EC90 [5, 18]: 13 ± 1 µM; EC90 [6, 18]: 12.1 ± 4.2 µM; Neutral red uptake assay SI [7]: 1.2; EC50 [7, 17]: 11.1 ± 3.4 µM; Neutral red uptake assay SI [8]: 1.5; EC50 [8, 17]: 12.6 ± 6.5 µM; IC50 [1, 19]: 13 ± 2 µM; EC50 [2, 17]: 12 ± 3.5 µM; EC90 [9, 18]: 12.3 ± 0.6 µM; EC90 [3, 18]: 10.5 ± 5.2 µM
CCN(CC)C(C)CN1c2ccccc2Sc2ccccc21 (stereo not shown) [Ethopropazine] | – | – | 2.0 | – | 1.5 | – | – | 61.3 ± 34.7 µM | 30.5 ± 27.5 µM | 42 µM | IC50 [1, 23]: 61.3 ± 34.7 µM
COc1ccc2c(c1)N(C[C@H](C)CN(C)C)c1ccccc1S2 [Methotrimeprazine] | – | – | 1.4 | – | 1.7 | – | – | 21 ± 5.4 µM | 19 ± 8.1 µM | 12.3 ± 1.7 µM | IC50 [1, 23]: 26 ± 10.8 µM
OCCN1CCN(CCCN2c3ccccc3Sc3ccc(Cl)cc32)CC1 [Perphenazine] | – | – | 1.6 | 9.7 ± 1.2 µM | 1.9 | – | – | 15.8 ± 3.4 µM | – | – | –
